Test results: US11331364B2, “Use for JNK inhibitor molecules for treatment of various diseases” (Xigen Inflammation Ltd., priority 2014, dated 2022)
Square brackets hold non-standard residues; d marks the D form. Peptide text beside a SMILES is read from it.

How the values were obtained:
[1] = system: Endotoxin-Induced Uveitis (EIU) model in rats; test: Action duration in endotoxin-induced uveitis (EIU), clinical scoring and PMN cells quantification; assay type: in vivo, rat
Method: […] (18) female Lewis rats (36 eyes) were randomly divided into 6 groups of 3 animals each. EIU was induced by a single footpad injection of 100 µl sterile pyrogen-free saline containing 200 µg of LPS (Lipopolysaccharides from Salmonella typhimurium, Sigma-Aldrich, France)(2 mg/ml).
Animals were treated 48 hours, 1 week, 2 weeks or 4 weeks before EIU induction by intravenous injection of the JNK inhibitor according to SEQ ID NO: 172 (“XG-104”) at a single dose of 1 mg/kg (dose volume 1 ml/kg) in the tail vein. Dexamethasone 2 mg/kg or vehicle (NaCl 0.9%) were injected intravenously immediately before EIU induction.
The effect of the JNK inhibitor according to SEQ ID NO: 172 (“XG-104”) on EIU was evaluated using clinical scoring and PMN cells quantification 24 hours after induction. Ocular examinations were performed by slit lamp at 24 hours i.e. at the clinical peak of the disease in this model. The intensity of clinical ocular inflammation was scored on a scale from 0 to 5 for each eye: • Grade 0: no inflammation, • Grade 1: presence of a minimal iris and conjunctival vasodilatation but without the observation of flare or cells in the anterior chamber (AC), • Grade 2: presence of moderate iris and conjunctival vessel dilation but without evident flare or cells in the AC, • Grade 3: presence of intense iris vessels dilation, flare and less than 10 cells per slit lamp, field in the AC, • Grade 4: presence of more severe clinical signs than grade 3, with more than 10 cells in the AC with or without the formation of a hypopyon, • Grade 5: presence of intense inflammatory reaction, fibrin formation in the AC and total seclusion of the pupil.
For histology, eighteen eyeballs (one per animal) were collected and fixed for 1 h at room temperature in phosphate buffered saline (PBS) containing 4% paraformaldehyde before being rinsed overnight in PBS. The next day, samples were embedded in optimal cutting temperature (OTC) compound (Tissue-Tek®, Sakura Finetek, Zoeterwoude, Netherland) and the optic nerve level using a cryostat (Leica CM 3050S, France) and mounted on super-frost slides for histology. After nuclei staining with DAPI (Sigma-Aldrich, France), sections were mounted in PBS/Glycerol (1/1) and observed by fluorescence photomicroscopy (FXA Microphot, Nikon, USA). Digitized micrographs were obtained usinga digital camera (Spot, BFI Optilas, France). PMN cells identified by the shape of their nuclei stained with DAPI, were quantified on histological sections. The analysis was performed with 2 different sections per eye at the optic nerve head level.
Twenty-four hours after LPS induction, clinical scores for the vehicle-treated rats were 4.6±0.2 (mean±SEM, n=8). Reduction was calculated as (grade in vehicle-treated eye—grade in test item treated eye)/(grade in vehicle-treated eye). A significant reduction (*p<0.05, **p<0.01) in the severity of the ocular inflammation was detected 24 hours after induction and intravenous treatment with the JNK inhibitor according to SEQ ID NO: 172 (“XG-104”) (1 mg/kg) administered 48 hours before EIU induction (mean score: 2.8±0.3), corresponding to a 40% (**) decrease of EIU scores compared with the score observed in vehicle group, 24 hours after induction and intravenous treatment with the JNK inhibitor according to SEQ ID NO: 172 (“XG-104”) (1 mg/kg) administered 1 week before EIU induction (mean score: 3.3±0.3), corresponding to a 27% (*) decrease of EIU scores compared with the score observed in vehicle group, and 24 hours after induction and intravenous treatment with the JNK inhibitor according to SEQ ID NO: 172 (“XG-104”) (1 mg/kg) administered 2 weeks before EIU induction (mean score: 3.0±0.2), corresponding to a 35% (**) decrease of EIU scores compared with the score observed in vehicle group. […]

[2] = system: acute CYP-induced cystitis in female Sprague-Dawley rats; test: Cyclophosphamide-induced acute cystitis, intravesical treatment, visceral pain and bladder inflammation; assay type: in vivo, rat; conditions: 50 mg/mL, i.ves.; 24 h after CYP
Method: This preclinical model is well-used to test therapeutic approaches for the treatment of interstitial cystitis/painful bladder syndrome (IC/PBS).
Animals were acclimatized to the laboratory conditions for at least 3 days before the start of any experiments. The animals were allocated to the following four experimental groups (n=10 animals per group):
To induce acute cystitis, a single i.p. injection of CYP at a dose of 150 mg/kg in a final volume of 5 mL/kg was performed. Control rats received physiological saline under the same experimental conditions as CYP (final volume of 5 mL/kg, i.p.).
On the day of each experiment, weight of rats was recorded.
Standardized conditions including fixed time-of-day (a.m. to minimize the potential circadian variations in the behaviours responses) and single-experimenter testing of all animals were applied to minimize variability behavior-based pain testing. Visceral pain including allodynia and hyperalgesia was evaluated by applying to the lower abdomen, close to the urinary bladder, a set of 8 calibrated von Frey filaments of increasing forces (1, 2, 4, 6, 8, 10, 26 and 60 g) with an interstimulus interval of 5 seconds. Prior testing, the abdominal area designed for mechanical stimulation of each animal was shaved. Animals were then placed on a raised wire mesh floor under individual transparent Plexiglas box and acclimatized for at least 30 minutes before starting the von Frey test. Filaments were then applied 1-2 seconds through the mesh floor with enough strength to cause the filament to slightly bend. Each filament was tested 3 times. Care was taken to stimulate different areas within the lower abdominal region in the vicinity of the urinary bladder to avoid desensitization.
Nociceptive behaviors were scored for each animal and each filament as follows:
The study design is schematically shown in FIG. 50 A. Birefly, acute cystitis was induced by CYP injection (i.p.) at Do (as described above).
Urinary bladders were rapidly collected and cleaned from lipoid tissue. Urinary bladders were weighed, cut at the bladder neck as well as oedema and haemorrhage scoring was performed (see table below). Finally, wall thickness was measured using a digital caliper by placing the bladder wall between the two outside jaws.

[3] = 1 mg/kg i.v. 1 week before EIU induction
[4] = 1 mg/kg i.v. 2 weeks before EIU induction
[5] = 1 mg/kg i.v. 4 weeks before EIU induction
[6] = 1 mg/kg i.v. 48 hours before EIU induction

CC(C)C[C@H](NC(=O)[C@H](CC(N)=O)NC(=O)[C@H](CC(C)C)NC(=O)[C@@H](NC(=O)[C@@H](C)NC(=O)[C@@H]1CCCN1C(=O)[C@H](CCCNC(=N)N)NC(=O)[C@@H](CCCCN)NC(=O)[C@@H]1CCCN1C(=O)[C@H](CCCNC(=N)N)NC(=O)[C@@H](CCCNC(=N)N)NC(=O)[C@H](CCCNC(=N)N)NC(=O)[C@H](CCCNC(=N)N)NC(=O)[C@H](CCC(N)=O)NC(=O)[C@@H](CCCNC(=N)N)NC(=O)[C@H](CCCNC(=N)N)NC(=O)[C@H](CCCCN)NC(=O)[C@H](CCCCN)NC(=O)[C@H](N)CCCNC(=N)N)[C@@H](C)O)C(=O)N[C@H](Cc1ccccc1)C(N)=O [SEQ ID NO: 172, rKKRrQRRrRPkRPaTLNLf] (H-[dR]KKR[dR]QRR[dR]RP[dK]RP[dA]TLNL[dF]-NH2; N-terminus assumed) was tested, and the “clinical score (mean±SEM)” value [1, 3] was 3.3±0.3, the “decrease of EIU scores vs vehicle group” value [1, 3] was 27% and the “clinical score (mean±SEM)” value [1, 4] was 3.0±0.2. For the same compound, the “decrease of EIU scores vs vehicle group” value [1, 4] was 35%, the “number of PMN cells” value [1, 4] was “significantly decreased” and the “reduction of number of PMN cells vs vehicle” value [1, 4] was 88%. For the same compound, the “clinical score (mean±SEM)” value [1, 5] was 4.2±0.1, the “decrease of EIU scores vs vehicle group” value [1, 5] was 9% and the “number of PMN cells” value [1, 5] was “significantly decreased”. The “reduction of number of PMN cells vs vehicle” value [1, 5] was 69%, the “clinical score (mean±SEM)” value [1, 6] was 2.8±0.3 and the “decrease of EIU scores vs vehicle group” value [1, 6] was 40%. For the same compound, the “AUC 1-8 g (allodynia) vs vehicle” value [2] was “significantly decreased”, the “AUC 8-60 g (hyperalgesia) vs vehicle” value [2] was “reduced” and the “haemorrhage scores vs vehicle” value [2] was “no significant change”. For the same compound, the “nociceptive scores vs vehicle” value [2] was “significantly decreased”, the “nociceptive threshold vs vehicle” value [2] was “significantly increased” and the “oedema scores vs vehicle” value [2] was “significant decrease”. The “urinary bladder wall thickness vs vehicle” value [2] was “significantly decreased”.
